Experimental data taken from ChEMBL document CHEMBL1150961, “Tenuecyclamides A-D, cyclic hexapeptides from the cyanobacterium Nostoc spongiaeforme var. tenue” (1998).

test system: Paracentrotus lividus; assay: Inhibition of sea urchin egg fertilization by sea urchin sperm assessed as inhibition of divided eggs; assay type: functional

Structure (SMILES)	ED100 [µM]
Cc1oc2nc1C(=O)NC(C)c1nc(cs1)C(=O)NC(C)c1nc(cs1)C(=O)N[C@H]2C (stereo partly drawn) [TENUECYCLAMIDE A]	10.8
CSCC[C@@H]1NC(=O)c2csc(n2)CNC(=O)c2nc(oc2C)[C@H](C)NC(=O)c2csc1n2 [TENUECYCLAMIDE C]	9
Cc1oc2nc1C(=O)NCc1nc(cs1)C(=O)N[C@@H](CC[S+](C)[O-])c1nc(cs1)C(=O)N[C@H]2C (stereo partly drawn) [TENUECYCLAMIDE D]	19.1
